Molecular target: T1, isopenicillin N synthase (IPNS) (Aspergillus nidulans, UniProt P05326)
T1 construct: gene ipnA; recombinant wild type (pJB703) from E. coli NM554; S55C form from pCOLD I, N-terminal His6 tag cut with 3C protease, 37,768 Da
T1 sequence (P05326 1-331): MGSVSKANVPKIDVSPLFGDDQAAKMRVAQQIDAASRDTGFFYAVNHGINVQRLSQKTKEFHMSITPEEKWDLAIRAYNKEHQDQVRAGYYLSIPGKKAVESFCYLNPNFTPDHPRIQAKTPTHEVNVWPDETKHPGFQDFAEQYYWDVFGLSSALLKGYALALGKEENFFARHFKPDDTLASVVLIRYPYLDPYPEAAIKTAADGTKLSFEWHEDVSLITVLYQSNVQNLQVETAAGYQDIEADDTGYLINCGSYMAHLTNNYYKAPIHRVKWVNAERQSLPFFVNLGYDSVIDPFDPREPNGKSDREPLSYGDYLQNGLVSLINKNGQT
Experiment: SFX and cryo synchrotron crystal structure
Format: binding
Details: Fe complex; formed in crystallo from ACV by about 30 min O2 exposure; SFX 1.60 Å at room temperature

Structure (SMILES): CC1(C)S[C@@H]2[C@H](NC(=O)CCC[C@H](N)C(=O)O)C(=O)N2[C@H]1C(=O)O [isopenicillin N]
- SFX and cryo synchrotron crystal structure: Composite SFX 2mFo-DFc omit map for IPNS:Fe:IPN obtained by ~30-min O2 exposure

From PMC8378823, “X-ray free-electron laser studies reveal correlated motion during isopenicillin N synthase catalysis” (Science Advances, 2021)
